Results taken from patent US6756509B2, “Method for purifying crude 2,6-naphthalenedicarboxylic acid” (Kobe Steel, Ltd., priority 2001, dated 2004).

How the values were obtained:
[1] = solubility in water at room temperature; format: physicochemical
Method: Preferably, the reduction reaction is performed at a temperature in the range of 280 to 350° C. […] In addition, in order to maintain the liquid phase at a high temperature in the range described above, the pressure must be the saturated vapor pressure or higher (150 to 250 atm). Fortunately, using hydrogen dissolved in water prevents the equipment from deteriorating. Specifically, if hydrogen gas is supplied to a water medium containing 2,6-NDA, the hydrogen gas is used at such a high temperature and high pressure, consequently making the reactor brittle. In order to prevent the embrittlement, pressure-resistant equipment, which is expensive, is required.

[2] = solubility in alcohol at room temperature

| SMILES | solubility in water [1] | solubility in alcohols ([2]; any alcohols) | amount that dissolves in ethanol ([2]; ethanol) |
| --- | --- | --- | --- |
| O=C(O)c1ccc2cc(C(=O)O)ccc2c1 [2,6-NDA, 2,6-naphthalenedicarboxylic acid] | slightly soluble or insoluble | hardly dissolves | – |
| O=C(O)c1ccc2ccccc2c1 [2-NA, 2-naphthoic acid] | – | – | 10 mass % |
